PubChem BioAssay (NCI)
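Test compounds were applied to cells in 96-well plates for 48 hours at 5 doses. GI50 is the concentration that inhibits growth by half. The concentration for full growth arrest is given as TGI.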

Columns and labels:
Experiment in all cases: NCI tumour cell line growth inhibition, 48 h
[1] = test system: HCC-2998 colon
[2] = test system: K-562 leukemia
[3] = test system: LOX IMVI melanoma
[4] = test system: MDA-MB-435
[5] = test system: PC-3 prostate
[6] = test system: RXF 393 renal
[7] = test system: SF-295 CNS
[8] = test system: SK-MEL-28 melanoma
[9] = test system: U251 CNS
[10] = test system: SR leukemia

Work on `O=NNc1ccc(-c2ccccc2)cn1` yielded a TGI [1] of over 76.4 µM, a TGI [2] of over 100 µM and a TGI [3] of 28.8 µM. For the same compound, the TGI [4] was 30.9 µM, the TGI [5] was 61.2 µM and the TGI [6] was 12.7 µM. For the same compound, the TGI [7] was 62.2 µM, the TGI [8] was over 80.1 µM and the TGI [9] was over 62.5 µM.

In the case of `COC1CCCc2c(OC(C)=O)ccc(OC(C)=O)c21` (configuration not stated), the TGI [1] is reported as over 100 µM, the TGI [2] is reported as over 100 µM and the TGI [3] is reported as over 100 µM. The TGI [6] was over 100 µM, the TGI [8] was over 100 µM and the TGI [10] was over 100 µM. The TGI [9] was over 100 µM.

`COc1ccc(-n2cc(-c3cc(OC)c(OC)c(OC)c3)nc2SCc2cccc(C#N)c2)cc1OC` was tested, and the GI50 [1] was over 100 µM, the TGI [1] was over 100 µM and the GI50 [2] was 56.9 µM. For the same compound, the TGI [2] was over 100 µM, the GI50 [3] was over 100 µM and the TGI [3] was over 100 µM. The GI50 [4] was 90.5 µM, the TGI [4] was over 100 µM and the GI50 [5] was 59.8 µM. It also gave a TGI [5] of over 100 µM, a GI50 [7] of over 100 µM and a TGI [7] of over 100 µM. The GI50 [8] was 16.8 µM, the TGI [8] was over 100 µM and the GI50 [9] was over 100 µM. The TGI [9] was over 100 µM.

`CNC(=O)[C@H](Cc1c[nH]c2ccccc12)NC(=O)[C@@H](CC(=O)NO)CC(C)C` showed a GI50 [1] of over 25 µM, a TGI [1] of over 25 µM and a GI50 [2] of 21.6 µM. It also gave a TGI [2] of over 25 µM, a GI50 [3] of over 25 µM and a TGI [3] of over 25 µM. It also gave a GI50 [4] of over 25 µM, a TGI [4] of over 25 µM and a GI50 [5] of over 25 µM. It also gave a TGI [5] of over 25 µM, a GI50 [7] of over 25 µM and a TGI [7] of over 25 µM. It also gave a GI50 [8] of over 25 µM, a TGI [8] of over 25 µM and a GI50 [9] of over 25 µM. It also gave a TGI [9] of over 25 µM.

Work on `COc1ccc(-c2cc(=O)c3c(O)c(O)c(OC)cc3o2)cc1O` yielded a TGI [1] of over 100 µM, a TGI [2] of over 100 µM and a TGI [3] of over 100 µM. It also gave a TGI [6] of over 100 µM, a TGI [7] of over 100 µM and a TGI [8] of over 100 µM. The TGI [10] was over 100 µM and the TGI [9] was over 100 µM.

`O=c1[nH]c2nc3ccccc3c(=O)n2nc1Cc1ccccc1` was tested, and the TGI [1] was over 100 µM, the TGI [2] was over 100 µM and the TGI [3] was over 100 µM. For the same compound, the TGI [7] was over 100 µM, the TGI [8] was over 100 µM and the TGI [10] was over 100 µM. The TGI [9] was over 100 µM.

With `COc1ccccc1/C=C1\C(=O)N(C(=O)Cc2ccccc2)N=C1C` the TGI [1] was over 100 µM, the TGI [2] was over 100 µM and the TGI [3] was over 100 µM. The TGI [7] was over 100 µM, the TGI [8] was over 100 µM and the TGI [10] was over 100 µM. It also gave a TGI [9] of over 100 µM.

For `CC(C)(C)OC(=O)N(CCCCN(CCCn1c2c(c3ccccc3c1=O)C(=O)c1ccccc1-2)C(=O)OC(C)(C)C)CCCn1c2c(c3ccccc3c1=O)C(=O)c1ccccc1-2`, the GI50 [1] was 10.9 µM, the TGI [1] was 41 µM and the GI50 [2] was 90.5 µM. For the same compound, the TGI [2] was over 100 µM, the GI50 [3] was 18.6 µM and the TGI [3] was over 100 µM. The GI50 [4] was 68.7 µM, the TGI [4] was over 100 µM and the GI50 [5] was 27.7 µM. The TGI [5] was over 100 µM, the GI50 [7] was 14 µM and the TGI [7] was over 100 µM. For the same compound, the GI50 [8] was over 100 µM, the TGI [8] was over 100 µM and the GI50 [10] was 0.304 µM. The TGI [10] was over 100 µM, the GI50 [9] was 27.2 µM and the TGI [9] was over 100 µM.

In the case of `COCN1COCN(C)C1=O`, the TGI [1] is reported as over 100 µM, the TGI [2] is reported as over 100 µM and the TGI [3] is reported as over 100 µM. It also gave a TGI [7] of over 100 µM, a TGI [8] of over 100 µM and a TGI [9] of over 100 µM.

In the case of `COc1ccc2c(=O)c(-c3cc(OC)c(OC)cc3OC)coc2c1`, the TGI [1] is reported as over 63.9 µM, the TGI [2] is reported as over 100 µM and the TGI [3] is reported as over 100 µM. It also gave a TGI [5] of over 100 µM, a TGI [6] of 24.2 µM and a TGI [7] of 12.5 µM. For the same compound, the TGI [8] was over 100 µM, the TGI [10] was over 100 µM and the TGI [9] was over 38.6 µM.

Work on `O=C(NCCCN1CCN(CCCNC(=O)c2cccc3ccccc23)CC1)c1cccc2ccccc12` yielded a TGI [1] of over 100 µM, a TGI [2] of over 100 µM and a TGI [3] of over 100 µM. For the same compound, the TGI [7] was over 100 µM and the TGI [9] was over 100 µM.

Compound `S=C1SCC2CCCN12` (configuration not stated) has a TGI [1] of over 100 µM, a TGI [2] of over 100 µM and a TGI [3] of over 100 µM. For the same compound, the TGI [6] was over 100 µM, the TGI [7] was over 100 µM and the TGI [10] was over 100 µM. It also gave a TGI [9] of over 100 µM.

Work on `O=C(c1ccccc1)c1nc2c(Cl)ccc(Cl)c2cc1C(Br)Br` yielded a TGI [1] of 4.92 µM, a TGI [2] of 1.77 µM and a TGI [3] of 3.07 µM. The TGI [6] was 4.05 µM, the TGI [7] was 2.6 µM and the TGI [8] was 0.637 µM. For the same compound, the TGI [10] was 13.1 µM and the TGI [9] was 2.38 µM.

For `C=CCCC(O)c1cc(C)c(O)c(C)c1` (configuration not stated), the TGI [1] was over 100 µM, the TGI [2] was over 100 µM and the TGI [3] was over 100 µM. It also gave a TGI [6] of over 100 µM, a TGI [7] of over 100 µM and a TGI [8] of over 100 µM. The TGI [9] was over 100 µM.

`N[C@H]1CCC[C@@H](O)C1O` (some centres not stated) was tested, and the TGI [1] was over 100 µM, the TGI [2] was over 100 µM and the TGI [3] was over 100 µM. For the same compound, the TGI [4] was over 100 µM, the TGI [5] was over 100 µM and the TGI [7] was over 100 µM. It also gave a TGI [8] of over 100 µM, a TGI [10] of over 100 µM and a TGI [9] of over 100 µM.

In the case of `CC(=O)OC1(Sc2ccccc2)CC2[C@H]3COC(C)(C)O[C@H]3CC[C@@]2(C)CC1=O` (some centres not stated), the TGI [2] is reported as over 100 µM, the TGI [6] is reported as over 100 µM and the TGI [7] is reported as over 100 µM. It also gave a TGI [8] of over 100 µM and a TGI [10] of 45.4 µM.

`CC1=CC(=O)NP(=O)(Oc2ccc(Cl)cc2)N1` (configuration not stated) gave a TGI [2] of over 100 µM, a TGI [3] of over 100 µM and a TGI [6] of over 100 µM. The TGI [7] was over 100 µM, the TGI [8] was over 100 µM and the TGI [10] was over 100 µM. The TGI [9] was over 100 µM.

For `Nc1[nH]nc(Nc2ccccc2)c1-c1nc2ccccc2s1`, the GI50 [1] was 1.88 µM, the TGI [1] was 4.21 µM and the GI50 [2] was 1.88 µM. It also gave a TGI [2] of 7.81 µM, a GI50 [3] of 1.59 µM and a TGI [3] of 2.97 µM. The GI50 [4] was 1.94 µM, the TGI [4] was 4.89 µM and the GI50 [5] was 1.58 µM. It also gave a TGI [5] of 3.39 µM, a GI50 [7] of 1.56 µM and a TGI [7] of 3.27 µM. It also gave a GI50 [8] of 2.06 µM, a TGI [8] of 4.29 µM and a GI50 [10] of 1.84 µM. It also gave a TGI [10] of 8.02 µM, a GI50 [9] of 2.26 µM and a TGI [9] of 5.5 µM.

`N#CN1CC[C@@H]2CC3(CCC2C1)OCCO3` (some centres not stated) was tested, and the TGI [1] was over 100 µM, the TGI [2] was over 100 µM and the TGI [6] was over 100 µM. For the same compound, the TGI [7] was over 100 µM, the TGI [10] was over 100 µM and the TGI [9] was over 100 µM.

`Cn1cc(-c2ccc3c4ccccc4n(C)c3c2)c2ccccc21` showed a TGI [1] of over 100 µM, a TGI [2] of over 100 µM and a TGI [3] of over 100 µM. The TGI [6] was over 100 µM, the TGI [7] was over 100 µM and the TGI [8] was over 100 µM. It also gave a TGI [9] of over 100 µM.

With `CC(=O)/C=C1\CC(=O)N(C)c2ccccc2N1` the TGI [1] was over 100 µM, the TGI [2] was over 100 µM and the TGI [3] was over 100 µM. For the same compound, the TGI [6] was over 100 µM, the TGI [7] was over 100 µM and the TGI [8] was over 100 µM. The TGI [10] was over 100 µM and the TGI [9] was over 100 µM.

`CCCCC[C@@H]1CCCC2NC(CCCCCO[Si](c3ccccc3)(c3ccccc3)C(C)(C)C)CCC21` (some centres not stated) showed a TGI [1] of 25.1 µM, a TGI [2] of 20.9 µM and a TGI [3] of 28.1 µM. The TGI [6] was 25.4 µM, the TGI [7] was 31.3 µM and the TGI [8] was 32.2 µM. It also gave a TGI [9] of 27.8 µM.
